Legend:
[1] = Intravenous administration to humans with the object of adrenal visualisation; assay type: in vivo, human
Excerpt: It was surmised that 19-methyl-^75 Se selenocholesterol was being converted to analogues of bile salts in which a methylseleno group was attached to the C19 carbon atom.

[2] = Biliary collection of 75Se radioactivity after intravenous injection, bile-cannulated rabbit; assay type: in vivo
Description: A male rabbit (NZW×LOP; 4.8 kg) was anaesthetized with sodium pentobarbitone ("Sagatal"), intravenously injected. A tracheotomy was performed and into a jugular vein was inserted a cannula with a 3-way tap. The animal was ventilated by intermittent positive pressure and anaesthesia maintained by intravenous administration of pentobarbitone as required. A midline ventral incision was made in the abdominal wall and the liver reflected to reveal the gall bladder, cystic duct and the common bile duct. After ligation of the cystic duct the common bile duct was cannulated for the collection of bile.
After a period of stabilization 1 ml of a solution of 19-methyl-[^75 Se]selenocholesterol (0.01 mg; 12 mCi) in polysorbate/normal saline was injected via the jugular cannula. Bile was collected as a series of 15-minute samples in preweighed tubes. After collection each sample was weighed and counted for ^75 Se radioactivity. The flow of bile, initially at 3.4 ml/15 minutes, declined to 1.5 ml/15 minutes after 61/2 hours. During this period 56.65 g of bile was collected containing approximately 100 μCi of ^75 Se radioactivity (about 1 percent of the injected dose).

[3] = Tissue distribution studies in rats after oral administration; assay type: in vivo, rat; settings: for whole body retention by tissue distribution (dissection): at the end of 8 days
Description: The pattern of tissue distribution is similar for all the compounds. At 20 hours the ^75 Se radioactivity is largely confined to the liver, gut and faeces; apart from compounds iii and iv less than 5 percent of the radioactivity is distributed among other organs.

[4] = Whole-body excretion studies in rats after oral administration (whole-body counts, bi-exponential fit); assay type: in vivo, rat; settings: for b (amplitude of second component) / c (constant; percentage predicted as never being excreted) / x (rate constant of first component) / y (rate constant of second component): Retention(t)=ae^-xt+be^-yt+c; for a (amplitude of first component, Retention(t)=ae^-xt+be^-yt+c): whole-body retention as % of initial counts, 6-8 days
Description: Whole-body excretion studies in rats over a period of 8 days after oral administration of compounds i to viii indicate that excretion is delayed with respect to a non-absorbable radioactive maker, ^131 I-polyvinylpyrollidone.
For each of the eight compounds under investigation, approximately 10-15 μCi was administered via an intragastric tube to rats. Whole-body counts were determined immediately after administration and at intervals during the following 6-8 days. A whole-body standard permitted corrections for radioactive decay and variations in counter efficiency.
Whole-body retention is expressed as a percentage of the counts determined immediately after administration.
Retention (t)=ae^-xt +be^-yt +c (1)

[5] = Clinical whole-body counting of 75Se retention after oral administration; assay type: in vivo, human; settings: for Retention of Selenium-75 Radioactivity: oral approx. 1 μCi
Description: Approximately 1 μCi of compound ii was given orally as a drink in water to four adult volunteers, two of them being normal active adult males, 35-50 years of age, and two who had received a total ileal resection more than 10 years previously. All were on a normal diet. Se-ii was administered between 10.00 am and 12 noon. Body radioactivity was then measured in a whole-body counter immediately after administering the ^75 Se-ii and subsequently at 48 hours and 7 days.

[6] = Biliary excretion studies in rats, oral mixture of 75Se-seleno bile acid and 14C-cholic acid; assay type: in vivo, rat
Description: Measurement of the ratio of the ^14 C/^75 Se radioactivity collected in a 24 hour bile sample to the ^14 C/^75 Se radioactivity administered orally gives an indication of the efficiency of absorption of the seleno bile acid as compared to ^14 C-cholic acid. Ideally, when these absorptions are the same the ratio would be 1, but as the efficiency of the adsorption seleno bile acid diminishes the ratio increases.

[7] = at 20 hours, relative to the other compounds

| SMILES | b (amplitude of second component) [4] [%] | c (constant; percentage predicted as never being excreted) [4] [%] | x (rate constant of first component) [4] [day⁻¹] | y (rate constant of second component) [4] [day⁻¹] | a (amplitude of first component, Retention(t)=ae^-xt+be^-yt+c) [4] [%] | other results |
| --- | --- | --- | --- | --- | --- | --- |
| C[75Se]C[C@]12CC[C@H](O)CC1=CC[C@@H]1[C@@H]2CC[C@]2(C)[C@@H]([C@H](C)CCCC(C)C)CC[C@@H]12 [19-methyl-[^75 Se]selenocholesterol] | – | – | – | – | – | localisation of selenium-75 radioactivity [1]: concentrated in the enterohepatic system; metabolism compared with cholesterol [1]: appeared to parallel that of cholesterol; 75Se radioactivity collected in bile (of injected dose) ([2]; i.v. via jugular cannula, bile collected 6 1/2 hours, 390 min): about 1%; 75Se radioactivity collected in bile ([2]; i.v., 12 mCi injected, 56.65 g bile over 6 1/2 hours): approximately 100 μCi |
| C[C@H](C[75Se]CC(=O)O)[C@H]1CC[C@H]2[C@@H]3CC[C@@H]4C[C@H](O)CC[C@]4(C)[C@H]3C[C@H](O)[C@]12C [Compound ii, 3α,12α-dihydroxy-22-(carboxymethyl-[^75 Se]seleno)-23,24-bisnor-5β-cholane] | 27.6 | 3.36 | 2.29 | 0.65 | 190 | 75Se radioactivity in the faeces [3, 7]: a very much small percentage of ^75 Se radioactivity in the faeces; 75Se radioactivity in the small bowel [3, 7]: a correspondingly larger proportion in the small bowel; Retention of Selenium-75 Radioactivity ([5]; Ileal resection (3), 0 h): 100%; Retention of Selenium-75 Radioactivity ([5]; Ileal resection (3), 48 hrs.): 26%; Retention of Selenium-75 Radioactivity ([5]; Ileal resection (3), 7 days): 7.5%; Retention of Selenium-75 Radioactivity ([5]; Ileal resection (4), 0 h, patient on drugs to slow bowel transfer): 100%; Retention of Selenium-75 Radioactivity ([5]; Ileal resection (4), 48 hrs., patient on drugs to slow bowel transfer): 80%; Retention of Selenium-75 Radioactivity ([5]; Ileal resection (4), 7 days, patient on drugs to slow bowel transfer): 9.5%; Retention of Selenium-75 Radioactivity ([5]; Normal (1), 0 h): 100%; Retention of Selenium-75 Radioactivity ([5]; Normal (1), 48 hrs.): 80%; Retention of Selenium-75 Radioactivity ([5]; Normal (1), 7 days): 31%; Retention of Selenium-75 Radioactivity ([5]; Normal (2), 0 h): 100%; Retention of Selenium-75 Radioactivity ([5]; Normal (2), 48 hrs.): 100%; Retention of Selenium-75 Radioactivity ([5]; Normal (2), 7 days): 27%; rate of elimination from the body ([5]; humans who have suffered an ileal resection): this rate of elimination is increased; rate of elimination from the body ([5]; normal humans, compared with rats): considerably slower than it is for rats |
| C[C@H](CC[75Se]CCC(=O)O)[C@H]1CC[C@H]2[C@@H]3[C@H](O)C[C@@H]4C[C@H](O)CC[C@]4(C)[C@H]3CC[C@]12C [iii, 3α,7α-dihydroxy-23-(β-carboxyethyl-[^75 Se]seleno)-24-nor-5β-cholane] | 37.5 | 4.0 | 2.31 | 0.53 | 170 | ratio of 14C/75Se radioactivity in 24 hour bile sample to 14C/75Se administered orally ([6]; 24 h bile, 14C-cholic acid internal marker, 1 = absorption same as cholic acid): 54; efficiency of absorption ([6]; compared to 14C-cholic acid): very much reduced absorption |
| C[C@H](CC[75Se]CCC(=O)O)[C@H]1CC[C@H]2[C@@H]3[C@H](O)C[C@@H]4C[C@H](O)CC[C@]4(C)[C@H]3C[C@H](O)[C@]12C [iv, 3α,7α,12α-trihydroxy-23-(β-carboxyethyl-[^75 Se]seleno)-24-nor-5β-cholane] | 42.5 | 15.5 | 2.77 | 0.66 | 260 | whole body retention by tissue distribution (dissection) [3]: ~5.5%; whole body retention by tissue distribution (dissection) ([3]; listed as tri-hydroxy compound): approximately 5.5% |
| CC([75Se]CC(=O)O)[C@H]1CC[C@H]2[C@@H]3[C@H](O)C[C@@H]4C[C@H](O)CC[C@]4(C)[C@H]3C[C@H](O)[C@]12C (stereo partly drawn) [v, 3α,7α,12α-trihydroxy-20-(carboxymethyl-[^75 Se]seleno)-5β-pregnane] | 16.5 | 0.8 | 2.52 | 0.38 | 98 | – |
| CC([75Se]CC(=O)NCC(=O)O)[C@H]1CC[C@H]2[C@@H]3[C@H](O)C[C@@H]4C[C@H](O)CC[C@]4(C)[C@H]3C[C@H](O)[C@]12C (some centres unmarked) [vi, Glyco-22-[^75 Se]selenacholic acid] | 7.2 | 0.58 | 1.54 | 0.54 | 221 | – |
| C[C@H](CCC[75Se]CC(=O)O)[C@H]1CC[C@H]2[C@@H]3CC[C@@H]4C[C@H](O)CC[C@]4(C)[C@H]3CC[C@]12C [vii, 3α-hydroxy-24-(carboxymethyl-[^75 Se]seleno)-5β-cholane] | 11.8 | 2.85 | 2.29 | 0.44 | 203 | – |
| C[C@H](CC[123Te]CC(=O)O)[C@H]1CC[C@H]2[C@@H]3CC[C@@H]4C[C@H](O)CC[C@]4(C)[C@H]3C[C@H](O)[C@]12C [viii, 3α,12α-dihydroxy-23-(carboxymethyl-[^123m Te]telluro)-24-nor-5β-cholane] | 6.3 | 1.3 | 2.26 | 0.43 | 173 | – |

From patent US4202876A, “Investigating body function” (The Radiochemical Centre Limited, priority 1977, dated 1980)
